# From a melting point compilation (Tetko et al.; mined from patent text by program, amines drawn as free bases though some values may be those of a salt)
row,SMILES,melting point [°C]
1,Cc1cc(C2=NN(C(N)=S)[C@H](C)Cc3cc4c(cc32)OCO4)cc(C)c1[N+](=O)[O-],228 to 230
2,Cc1cccc(-c2cn(C)cc(-c3cccc(Br)c3)c2=O)c1,144 to 147
3,COc1cc(C(O)(C(F)(F)F)C(F)(F)F)cc(Br)c1NS(C)(=O)=O,38 to 41
4,Cc1ccccc1C(=O)Nc1ccc(C(=O)N2CCCC(CN)c3ccccc32)cc1 (configuration not stated),233 to 235
5,Cc1c(-c2ccccc2)nn(C(C)(C)C(=O)N(C)C)c1C,115 to 117
6,CS(=O)(=O)Nc1cc([C@@H](O)CNC2CCN(c3ccc(S(=O)(=O)N4CC(=O)NC4=O)cc3)CC2)ccc1O,200 to 202
7,Cc1ccc(NC(=O)c2ccc(CN3CCN(C)C(=O)C3)cc2)cc1Nc1nccc(-c2cccnc2)n1,187 to 192
8,Nc1ncc(-c2ccncc2)cn1,180 to 182
9,N#CC(C#N)CC(=O)c1ccc(Cl)s1,155 to 158
10,CC(F)=C1CCC2C3CC=C4CC(O)CCC4(C)C3CCC12C (configuration not stated),129 to 133
11,O=c1c2ccccc2n(CCCCl)c2ccc(Cl)cc12,141
12,Cc1sc(-n2cccc2)c(C(=O)N2CCCC2)c1C,100
13,NCC(O)c1nn(Cc2ccccc2)c2ccccc12 (configuration not stated),126
14,CCN(CC)C(=O)c1ccoc1-c1ccc(Cl)cc1,64 to 66
15,COc1cccc(-c2c(Cl)c(CN3CCCCC3)nc3sc4c(c23)CCN(Cc2ccccc2)C4)c1OC,173 to 174
16,O=Cc1ccc(Cl)cc1C1(c2ccccc2F)OCCO1,103 to 105
17,CCOC(=O)CNC(=O)CCCCCNC(=O)OC(C)(C)C,76 to 77
18,CCCn1nc2c(N)nc3ccccc3c2c1CC(C)(C)N,193 to 195
19,O=C(CCCCCNC(=O)Nc1cn2c3c(cccc13)CCC2)NO,161 to 163
20,c1ccc2sc(=NCCN3CCOCC3)sc2c1,75 to 76

row,SMILES,melting point [°C]
1,Cc1c(-c2ccc([N+](=O)[O-])cc2)sc2c1c(=O)n(-c1ccccc1)c(=O)n2Cc1c(F)cccc1F,280 to 282
2,O=C(NC1c2ccccc2-c2[nH]c(=O)c3nccn3c21)c1ccccc1 (configuration not stated),300
3,CN(C)CCCNc1ccc([N+](=O)[O-])cc1,60 to 61.5
4,O=C(O)c1cccnc1Nc1cccc(Cl)c1,197 to 199
5,COc1ccc(N2CCC(=O)N(c3ccc(C)cc3)CC2)c(-c2ccc(N(C)C)cc2)n1,174 to 175
6,Cn1ccc2cc(NC(=O)Oc3ccccc3)ccc21,103 to 107
7,COc1ccc(Oc2ccc(C(=O)N(C(C)C)C3CCCCC3)cc2)cc1,81.7
8,COc1ccc(S(=O)(=O)N(CCC(F)=C(F)F)c2ccccc2/C=C/c2ccncc2)cc1,148 to 149
9,Clc1ccc2oc(C3CCNCC3)cc2c1,77 to 78
10,CCN(CC)CCNC(=O)c1cnc(-c2ccccc2)nc1S,178 to 180
11,CNS(=O)(=O)c1ccccc1Nc1nc(Nc2ccc3c(c2)CCCC(=O)N3)ncc1Cl,276 to 282
12,CS(=O)(=O)c1ccc(-c2oc3ccccc3c(=S)c2-c2ccc(F)cc2)cc1,203 to 205
13,CCS(=O)(=O)Nc1cc(Br)cc(Cc2c[nH]cn2)c1C,202 to 204
14,CN1CCC(CC(O)c2cc(-c3ccccc3)nc3ccccc23)CC1 (configuration not stated),208
15,N#CC(=NOCF)C(N)=O,124 to 125
16,COC(=O)[C@H](CCC(=O)O)N1C(=O)c2ccccc2C1=O,137 to 138
17,CC(Nc1nc(Cl)nc2c1cnn2-c1ccccc1)C(O)c1ccccc1 (configuration not stated),164 to 165
18,O=C1OC2(CCc3ccccc32)c2ccccc21 (configuration not stated),138 to 139
19,COc1cc2c(cc1OC)C(=CC(N)=O)NCC2,156 to 158
20,CS(=O)(=O)Nc1ccc(C(=O)Cc2ccccc2)cc1Sc1ccc(F)cc1F,120 to 122

# The remaining lines, values ahead:
row,melting point [°C],SMILES
1,211 to 216,COc1ccccc1Oc1c(NS(=O)(=O)c2ccc(C)cn2)nc(-c2cccc(O)c2)nc1OC
2,166 to 168,CCCCOc1c(N)c(=O)c1=O
3,155,CCCn1cnc2cc(CN3CCN(C(c4ccccc4)c4ccccc4)CC3)ccc21
4,> 230,Cc1c(F)cccc1NC(=O)c1ccccc1CN1C(=O)C2(COc3cc4c(cc32)CCO4)c2ccccc21 (configuration not stated)
5,85,COC(=O)c1cccc(S(=O)(=O)Cc2c(O[C@H](Cn3ccnc3)c3ccccc3)ccc3c2CCCC3=O)c1
6,106 to 108,CC(=O)SC(CC(=O)c1ccccc1C)C(=O)O (configuration not stated)
7,152 to 153,CCOC(=O)/C(=N\OC12CC3CC(CC(C3)C1)C2)c1csc(N)n1
8,147 to 150,CCCCn1c(=O)n(CCC)c(=O)c2c3n(nc21)CCCN3
9,82,CCOC(=O)CC(NS(=O)(=O)c1cccc(-c2cccc(NC(=NC#N)NC3CC3)c2)c1)c1ccccc1 (configuration not stated)
10,194 to 195,Cc1cccc(C(=O)NC(C)C)c1N(C(=O)c1cc(C(F)(F)F)[nH]n1)c1ncccc1Cl
11,209 to 211,CC(=O)c1ccc(N2CCN(C(=O)c3c(Cl)ccc([N+](=O)[O-])c3Cl)CC2)c(F)c1
12,53 to 55,CCC(C)Nc1ccc([N+](=O)[O-])cc1[N+](=O)[O-] (configuration not stated)
13,142 to 144,Cc1ccsc1C(Cc1ccccc1O)N(C)C=O (configuration not stated)
14,159 to 161,COc1ccc(OC)c(CC(=O)c2c(O)c3cccnc3n(-c3ccccc3)c2=O)c1
15,138 to 140,CCOC(=O)CN1C(=O)c2cccc3c(Cl)ccc1c23
16,196 to 198,COc1cccc2c(CCCNC3COc4c(F)ccc(C(N)=O)c4C3)c[nH]c12 (configuration not stated)

row,melting point [°C],SMILES
1,125 to 126,COc1ccc2ccccc2c1CN1CCC(=O)C(C(c2ccc(F)cc2)c2ccc(F)cc2)C1 (configuration not stated)
2,124,CCOC(=O)C1=C(N)NC(C)=C(C(=O)OC)C1c1cc([N+](=O)[O-])ccc1Cl (configuration not stated)
3,182 to 183,CN(C)C=NS(=O)(=O)c1cc(C(C)(C)C)cc(C=O)c1O
4,215 to 217,CNC(=S)c1cnn(-c2ccccc2)c1C#N
5,90 to 92,COC(=O)c1cc(N=NN(C)C)cs1
6,148 to 150,CC(=O)OC1CC2C3CCC(C(C)CCCC(C)C)C3(C)CCC2C2(C)CC(F)C(O)CC12 (configuration not stated)
7,284 to 287,Cc1nc2c(N)nc3ccccc3c2n1CC(C)(C)C(N)=O
8,169 to 174,N#CC(NC(=O)c1ccccc1)n1cccn1 (configuration not stated)
9,148 to 150,C=C(C)C1CCC2C3CC(=O)C4=CC(=O)CCC4(C)C3CCC12C (configuration not stated)
10,108 to 109,CCCOc1ccccc1OS(=O)(=O)NC(=O)Nc1nc(OC)cc(OC)n1
11,> 250,O=C(O)Cn1c(=O)c(=O)[nH]c2ccc3ccc(-n4ccc(CN5CCc6ccccc6C5)c4)cc3c21
12,91 to 93,COc1cc(N)c(Cl)cc1C(=O)NCCNCc1ccc(CN(C)C)o1
13,68 to 69.5,CC(=O)NCC(CCl)OC(C)=O (configuration not stated)
14,246 to 250,COc1ccc(-c2ccc(C(N)=O)cc2)cc1Br
15,195,O=C(N=CN1CCCCC1)C(O)(C(=O)N=CN1CCCCC1)c1ccc(Cl)c(Cl)c1 (configuration not stated)
16,131 to 132,O=C(O)c1cccc(-c2ccc3c(c2)N(c2ccc(Cl)cc2Cl)CCCC3)c1
